Entries after “also recorded” stand apart in the source; their conditions may differ. Where two headings read alike, the source gives them in different places.
Assays:
human α7 nAChR = biological target: T1, human α7 nAChR (Homo sapiens, UniProt P36544); test: Calcium fluorescence assay on α7 nAChR expressed in Neuro2a cells, in the presence of PNU120596; type: cell-based; details: for α7 nAChR agonistic activity: at concentrations up to 1 mM, PNU 120,596 present
T1 construct: expressed in transfected cells; host or cells: mouse neuroblastoma Neuro2a, transient co-transfection with Ric-3 (Ric3-pCMV6-XL5, OriGene) and the calcium sensor Case12
T1 sequence (P36544 23-502): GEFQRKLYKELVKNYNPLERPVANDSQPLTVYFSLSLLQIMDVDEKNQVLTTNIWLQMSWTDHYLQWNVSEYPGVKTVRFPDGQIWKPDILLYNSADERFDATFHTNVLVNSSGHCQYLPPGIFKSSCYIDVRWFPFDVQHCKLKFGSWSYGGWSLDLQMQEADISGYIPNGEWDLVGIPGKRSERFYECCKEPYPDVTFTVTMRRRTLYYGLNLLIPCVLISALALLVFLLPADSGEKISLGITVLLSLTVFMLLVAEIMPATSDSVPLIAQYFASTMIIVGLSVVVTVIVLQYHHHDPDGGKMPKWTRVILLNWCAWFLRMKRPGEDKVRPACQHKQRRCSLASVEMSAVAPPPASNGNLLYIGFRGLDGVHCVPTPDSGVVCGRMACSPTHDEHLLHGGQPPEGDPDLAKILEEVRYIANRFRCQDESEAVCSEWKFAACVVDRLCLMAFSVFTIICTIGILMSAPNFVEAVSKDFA
Protocol: A panel of the synthesized compounds was tested to determine their activity on α7 nAChR by fluorescence detection of cytoplasmic calcium rise (Figure 2a).
Mouse neuroblastoma Neuro2a cells were purchased from the Russian collection of cell cultures (Institute of Cytology, Russian Academy of Sciences, Saint Petersburg, Russia). Cells were cultured in Dulbecco’s modified Eagle’s essential medium (Paneco, Moscow, Russia) supplemented with 10% fetal bovine serum (Sigma, St. Louis, MO, USA). The cells one day before transfection were subcultured and plated at a density of 10,000 cells per well on a 96-well plate. The next day, Neuro2a cells were transiently transfected with plasmids coding α7 nAChR (human α7 nAChR-pCEP4) or its mutants, the chaperone Ric-3 (Ric3-pCMV6-XL5, OriGene, USA) and a fluorescent calcium sensor Case12 (pCase12-cyto vector, Evrogen, Russia) in molar ratio 4:1:1. Lipofectamine transfection protocol (Invitrogen, Waltham, MA, USA) was performed as recommended by the manufacturer. Transfected cells were grown at 37 °C in a CO2 incubator for 48 h.
Calcium […] assay was performed as described previously. Briefly, Transfected Neuro2a cells were grown on black 96-well plates (Corning, Somerville, MA, USA) at 37 °C in a CO2 incubator for 72 h, then growth medium was substituted with buffer containing 140 mM NaCl, 2 mM CaCl2, 2.8 mM KCl, 4 mM MgCl2, 20 mM HEPES, 10 mM glucose; pH 7.4.
Cells were incubated with the α7 nAChR positive allosteric modulator PNU120596 (10 μM, Tocris, Bristol, UK) for 20 min at room temperature before the addition of tested compounds. Plates were measured in microplate reader Hidex Sence (Hidex, Turku, Finland) using excitation at 485 nm and emission at 535 ± 10 nm. Fluorescence peak intensity in each well was expressed as a percentage of the maximal obtained response. Data files were analysed using Hidex Sence software (Hidex, Turku, Finland). Controls were run in the presence of 4 μM α-cobratoxin.
The R statistical programming environment “https://www.r-project.org/” (accessed on 16 June 2023) was used to analyze the results. Base R graphics and ggplot2 [54] graphical library were used for the data visualisation. Dose-response curves were fitted using “nlm” function and the following equation: response ~ (100/1 + (EC50/x)^n), where x denotes base 10 logarithm of ligand concentration in moles per liter (normalized to 1M) and n is the Hill coefficient. Libraries “rgl” “https://CRAN.R-project.org/package=rgl” (accessed on 16 May 2023) and “barplot3d” “https://cran.r-project.org/src/contrib/Archive/barplot3d/” (accessed on 16 May 2023) were used to generate the 3D bar chart shown on Figure 2b.
Figure 2 In vitro activity determination of the synthesized compounds. […] The receptor activation was detected as an increase in fluorescent signal in cell cytoplasm by fluorescence microscopy or as total fluorescence of the well in 96-well plate reader setup. Normalized fluorescence amplitude was plotted against base 10 logarithm of mole per liter concentration of the tested agonist and EC50 values were than calculated using dose-response equation. […] Substitutions in the 6th position of the indole ring (designated as X) were halogens (green shadow), hydrogen bond acceptors (yellow shadow) or hydrogen bond donors (blue shadow). Carboxy group modifications were comprised by free acid (Q = OH), ethers (Q = OCH3, OC2H5), and amides (Q = NH2, NHCH3).

[1] = system: TLR4 expression on macrophages; test: Flow cytometry of TLR4 receptor on macrophages; type: cell-based, human; details: 48 h incubation
Protocol: The effect of the above-listed compounds on the expression of the TLR4 receptor and the CD86 protein was studied by flow cytometry after 48 h incubation with macrophages. The interaction of bacterial endotoxins with the TLR4 receptor is known to activate the expression of several pro-inflammatory cytokine genes, while the co-stimulatory molecule CD86 plays an important role in […] inflammatory responses. A decrease in the expression of the TLR4 receptor was observed under the action of all tested compounds (Figure 4c,e), the rank order of these TLR4-suppressing effects was as follows: hypaphorine (14%) < PNU 282,987 (21%) < 6ID (31%).
(§1) Peripheral blood mononuclear cells (PBMCs) were separated by Ficoll-Paque PLUS density gradient centrifugation. PBMCs were placed in a sterile Petri dish and incubated at 37 °C for 2 h. Unattached cells were then removed by washing with PBS and substituted with fresh complete RPMI 1640 medium. To generate monocyte-derived macrophages (MDMs), 50 ng/mL GM-CSF was added to the isolated monocytes and cultured for 6 days to differentiate them into non-polarized MDMs.
(§2) Figure 4 The effects of PNU 282987, hypaphorine, and D-6-iodohypaphorine methyl ester (6ID) on macrophage membrane proteins expression. Cells were treated with these compounds for 48 h and then analyzed by flow cytometry. PNU 282,987 led to an increase in the (a) CD11b and (b) CD11c expression. (c): All tested compounds led to a decrease in TLR4 expression. (d): Macrophages stimulation with hypaphorine and 6ID promoted an increase in CD86 expression. Results obtained in three independent experiments on macrophages from different donors and presented as mean ± SD. One-way ANOVA tests with Tukey post hoc test: * p ˂0.05, ** p ˂ 0.01, **** p < 0.0001 in comparison with untreated cells.

[2] = system: CD11c expression on macrophages; test: Flow cytometry of macrophage membrane protein CD11c; type: cell-based, human; details: 48 h
Protocol: The selective agonist PNU 282,987 increased CD11b and CD11c protein expression by an average of 10% and 26%, respectively (Figure 4a,b).
as §1, §2

**Q.** Which EC50 (human α7 nAChR; human α7 nAChR in Neuro2a cells, PNU120596 10 μM present, read-out: EC50) does the source give for COC(=O)C(Cc1c[nH]c2cc([N+](=O)[O-])ccc12)[N+](C)(C)C (stereo not drawn) [Compound 5, methyl ester of 6-nitrohypaphorine] here?
**A.** 14 µM

**Q.** C[N+](C)(C)[C@H](Cc1c[nH]c2ccccc12)C(=O)[O-] [Compound 16, L-hypaphorine, reference compound] was tested. Which “α7 nAChR agonistic activity” value (human α7 nAChR; listed as Hypaphorine) did it give?
**A.** did not show α7 nAChR agonistic activity

**Q.** And the “α7 nAChR agonistic activity” value (human α7 nAChR; listed as L-hypaphorine)?
**A.** failed to activate α7 nAChR

**Q.** What about the EC50 (human α7 nAChR; human α7 nAChR in Neuro2a cells, PNU120596 10 μM present) of the same compound?
**A.** no agonistic activity

**Q.** What about the “decrease in the expression of the TLR4 receptor” value [1] of the same compound?
**A.** 14%

**Q.** And the “increase in CD11c protein expression” value [2]?
**A.** but not 6ID or hypaphorine, leads to a significant increase

**Q.** Which results are given for COC(=O)[C@@H](Cc1c[nH]c2cc(I)ccc12)[N+](C)(C)C [Compound 1, (D)-6-iodohypaphorine methyl ester]?
**A.** EC50 (human α7 nAChR): 0.61 µM; decrease in the expression of the TLR4 receptor [1]: 31%; increase in CD11c protein expression ([2]; listed as 6ID): not statistically significant; also recorded: but not 6ID or hypaphorine, leads to a significant increase

— PMC10305119, “Analogs of 6-Bromohypaphorine with Increased Agonist Potency for α7 Nicotinic Receptor as Anti-Inflammatory Analgesic Agents” (Marine Drugs, 2023)
